Laboratory results taken from patent publication US20240101570A1 (AMGEN INC., priority 2020, published 2024).

Columns and labels:
HCT116 MTAP null cells = test: HCT116 MTAP null cell proliferation / viability (CellTiter-Glo, 6 days); assay type: cell-based; conditions: HCT116-MTAP null, 144 h, HCT116 MTAP null cells, 6 days, CellTiter-Glo; read-out: HCT-116 MTAP null IC50
Method in brief: (§1)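 IC50 values derive from sigmoidal dose-response fits, some with Hill slope fixed at −1 and top constrained to 100%, others from 4-parameter logistic models. They reflect CellTiter-Glo viability after 6 days of compound exposure at up to 10 or 50 μM.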

HCT116 WT cells = test: HCT116 WT cell proliferation / viability (CellTiter-Glo, 6 days); assay type: cell-based; conditions: Homo sapiens, HCT-116, 144 h, HCT116 WT cells, 6 days, CellTiter-Glo; read-out: HCT-116 WT IC50
Method in brief: as §1

Structure (SMILES)	IC50 (HCT116 MTAP null cells)	IC50 (HCT116 WT cells)
CC(C)N(Cc1ccc(C(F)(F)F)nn1)C(=O)c1ccc2nc(N)c3c(c2c1)CO[C@@H]3C [Example 393, (3R)-4-amino-3-methyl-N-(2-propanyl)-N-((6-(trifluoromethyl)-3-pyridazinyl)methyl)-1,3-dihydrofuro[3,4-c]quinoline-8-carboxamide]	113 nM	6.93 µM
C[C@H]1OCc2c1c(N)nc1ccc(C(=O)N(Cc3ccc(C4CC4)cn3)C3CC3)cc21 [Example 368, (3R)-4-amino-N-cyclopropyl-N-((5-cyclopropyl-2-pyridinyl)methyl)-3-methyl-1,3-dihydrofuro[3,4-c]quinoline-8-carboxamide]	65 nM	3.26 µM
C[C@H](c1ccc(C(F)(F)F)nn1)N(C)C(=O)c1cc2c3c(c(N)nc2cc1F)COC3 (single isomer, unassigned) [Example 858]	41 nM	3.33 µM
Nc1nc2cnc(C(=O)N(Cc3ccc(OC(F)F)nn3)CC3CC3)cc2c2c1COC2 [Example 418, 4-amino-N-(cyclopropylmethyl)-N-((6-(difluoromethoxy)-3-pyridazinyl)methyl)-1,3-dihydrofuro[3,4-c][1,7]naphthyridine-8-carboxamide]	171 nM	6.34 µM
CN(Cc1ccc(C(F)(F)F)nn1)C(=O)c1ccc2nc(N)c3c(c2c1)COC3 [Example 352, 4-amino-N-methyl-N-((6-(trifluoromethyl)-3-pyridazinyl)methyl)-1,3-dihydrofuro[3,4-c]quinoline-8-carboxamide]	872 nM	> 10 µM
CN(Cc1ccc(C(F)(F)F)cn1)C(=O)c1ccc2nc(N)c3c(c2c1)COC3 [Example 450, 4-amino-N-methyl-N-((5-(trifluoromethyl)-2-pyridinyl)methyl)-1,3-dihydrofuro[3,4-c]quinoline-8-carboxamide]	159 nM	11.5 µM
C[C@@H]1OCc2c1c(N)nc1cnc(C(=O)N(Cc3ccc(OC(F)F)nn3)CC3CC3)cc21 [Example 425, (3S)-4-amino-N-(cyclopropylmethyl)-N-((6-(difluoromethoxy)-3-pyridazinyl)methyl)-3-methyl-1,3-dihydrofuro[3,4-c][1,7]naphthyridine-8-carboxamide]	2710 nM	> 50 µM
Nc1nc2ccc(C(=O)N(Cc3ccc(C(F)(F)F)nn3)C3COC3)cc2c2c1COC2 [Example 713, 4-amino-N-(3-oxetanyl)-N-((6-(trifluoromethyl)-3-pyridazinyl)methyl)-1,3-dihydrofuro[3,4-c]quinoline-8-carboxamide]	5110 nM	> 50 µM
Cn1ncc2c(N)nc3cc(C(F)(F)F)c(C(=O)N(Cc4ccc(C(F)(F)F)nn4)C4CC4)cc3c21 [Example 813, 4-amino-N-cyclopropyl-1-methyl-7-(trifluoromethyl)-N-((6-(trifluoromethyl)-3-pyridazinyl)methyl)-1H-pyrazolo[4,3-c]quinoline-8-carboxamide]	676 nM	29.3 µM
CN(Cc1ccc(S(F)(F)(F)(F)F)cc1O)C(=O)c1cc2c3c(c(N)nc2cc1F)COC3 [Example 576, 4-amino-7-fluoro-N-(2-hydroxy-4-(pentafluoro-lambda~6~- sulfanyl)benzyl)-N-methyl-1,3-dihydrofuro[3,4-c]quinoline-8-carboxamide]	107 nM	2.08 µM
C[C@H](c1ccc(C(F)(F)F)nn1)N(C(=O)c1cc2c(cc1F)nc(N)c1cnn(C)c12)C1CC1 (single isomer, unassigned) [Example 878]	10 nM	0.709 µM
C[C@H](c1ncc(F)cc1F)N(C)C(=O)c1cc2c(cc1F)nc(N)c1cnn(C)c12 (single isomer, unassigned) [Example 853]	167 nM	14.3 µM
CN(Cc1ccc(Br)nn1)C(=O)c1ccc2nc(N)c3c(c2c1)COC3 [Example 327, 4-amino-N-((6-bromo-3-pyridazinyl)methyl)-N-methyl-1,3-dihydrofuro[3,4-c]quinoline-8-carboxamide]	811 nM	> 10 µM
CN(Cc1ncc(C(F)(F)F)cc1F)C(=O)c1ccc2nc(N)c3cnn(C)c3c2c1 [Example 527, 4-amino-N-((3-fluoro-5-(trifluoromethyl)-2-pyridinyl)methyl)-N,1-dimethyl-1H-pyrazolo[4,3-c]quinoline-8-carboxamide]	183 nM	13.5 µM
CCN(Cc1ccc(C(F)(F)F)nn1)C(=O)c1ccc2nc(N)c3c(c2c1)CO[C@@H]3C [Example 551, (3R)-4-amino-N-ethyl-3-methyl-N-((6-(trifluoromethyl)-3-pyridazinyl)methyl)-1,3-dihydrofuro[3,4-c]quinoline-8-carboxamide]	125 nM	5.57 µM
CC(C)N(Cc1ccc(C(F)(F)F)cn1)C(=O)c1ccc2nc(N)c3ncncc3c2c1 [Example 755, 5-amino-N-(2-propanyl)-N-((5-(trifluoromethyl)-2-pyridinyl)methyl)pyrimido[4,5-c]quinoline-9-carboxamide]	892 nM	6.42 µM
Nc1nc2cnc(C(=O)N(Cc3ccc(C4CC4)cn3)C3CC3)cc2c2c1COC2 [Example 348, 4-amino-N-cyclopropyl-N-((5-cyclopropyl-2-pyridinyl)methyl)-1,3-dihydrofuro[3,4-c][1,7]naphthyridine-8-carboxamide]	155 nM	9.04 µM
N#Cc1ccc(CN(C(=O)c2cc3c4c(c(N)nc3cc2F)COC4)C2CC2)nc1 [Example 476, 4-amino-N-((5-cyano-2-pyridinyl)methyl)-N-cyclopropyl-7-fluoro-1,3-dihydrofuro[3,4-c]quinoline-8-carboxamide]	1370 nM	4.46 µM
CCN(Cc1ccc(C(F)(F)F)nn1)C(=O)c1cc2c(cn1)nc(N)c1cnn(C)c12 [Example 550, 4-amino-N-ethyl-1-methyl-N-((6-(trifluoromethyl)-3-pyridazinyl)methyl)-1H-pyrazolo [4,3-c][1,7]naphthyridine-8-carboxamide]	66 nM	1.8 µM
CC1OCc2c1c(N)nc1ccc(C(=O)N(Cc3ccc(C(F)(F)F)cn3)Cc3ccnc4[nH]ccc34)cc21 (centres unmarked) [Example 916, N-((1H-pyrrolo[2,3-b]pyridin-4-yl)methyl)-4-amino-3-methyl-N-((5-(trifluoromethyl)pyridin-2-yl)methyl)-1,3-dihydrofuro[3,4-c]quinoline-8-carboxamide]	6 nM	0.2 µM
CC(C)N(Cc1ccc(C(F)(F)F)cn1)C(=O)c1cc2c3c(c(N)nc2cn1)CCO3 [Example 534, 4-amino-N-(2-propanyl)-N-((5-(trifluoromethyl)-2-pyridinyl)methyl)-2,3-dihydrofuro[3,2-c][1,7]naphthyridine-8-carboxamide]	581 nM	5.58 µM
CC1OCc2c1c(N)nc1ccc(C(=O)N(Cc3ccc(C#N)cn3)C(C)C3CCOCC3)cc21 (centres unmarked) [Example 892, 4-amino-N-((5-cyanopyridin-2-yl)methyl)-3-methyl-N-(1-(tetrahydro-2H-pyran-4-yl)ethyl)-1,3-dihydrofuro[3,4-c]quinoline-8-carboxamide]	73 nM	1.9 µM
